Reference: patent US20090030039A1, “Piperidine Derivatives as Cxcr3 Receptor Antagonists” (priority 2006, published 2009)
Structures can show the parent of a compound that is named as a salt.

Tests used:
human CXCR3 = target: T1, human CXCR3 (Homo sapiens, UniProt P49682); experiment: [35S]GTPγS exchange assay, CXCR3 receptor inhibition (hI-TAC-induced GTPγS-binding); format: biochemical; conditions: -log IC50 (molar) inhibiting 50% of specific I-TAC-induced GTPγS-binding, membranes of human CXCR3-transfected CHO cells; for IC50: read-out: pIC50 (converted)
T1 construct: expressed in transfected cells; host or cells: CHO cells (membrane preparation)
T1 sequence (P49682 1-368): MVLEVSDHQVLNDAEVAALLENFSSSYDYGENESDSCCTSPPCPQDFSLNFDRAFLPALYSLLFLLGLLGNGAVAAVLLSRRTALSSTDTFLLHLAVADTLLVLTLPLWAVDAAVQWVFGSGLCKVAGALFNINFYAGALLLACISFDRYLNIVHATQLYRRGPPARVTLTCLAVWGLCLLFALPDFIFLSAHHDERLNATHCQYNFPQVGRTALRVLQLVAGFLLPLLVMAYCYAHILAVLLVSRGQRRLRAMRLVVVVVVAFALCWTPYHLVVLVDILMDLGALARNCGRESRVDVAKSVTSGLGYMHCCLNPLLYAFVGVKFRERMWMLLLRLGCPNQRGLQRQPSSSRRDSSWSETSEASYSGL

Row | Compound | melting point | IC50 (human CXCR3) | pIC50 (human CXCR3)
1 | Cl.Nc1cc(CN2CCC(C3(c4ccccc4)CCC(=O)NC3=O)CC2)ccc1Cl (centres unmarked) | 287.8 °C | – | –
2 | O=C1CCC(c2ccccc2)(C2CCN(Cc3ccc(Cl)c([N+](=O)[O-])c3)CC2)C(=O)N1 (centres unmarked) (as salt: HCl) [Compound 12] | 244.4 to 248.3 °C | – | –
3 | O=C1CCC(c2ccccc2)(C2CCN(Cc3ccc(Cl)c(F)c3)CC2)C(=O)N1 (single isomer, unassigned) [Compound 40] | 192 to 194.3 °C | 398 nM | –
4 | O=C1CCC(c2ccccc2)(C2CCN(Cc3ccc(Cl)c(F)c3)CC2)C(=O)N1 (single isomer, unassigned) [Compound 41] | 192.3 to 196.3 °C | – | 6.4
5 | Cl.O=C1CCC(c2ccc(F)cc2F)(C2CCN(Cc3ccc(Cl)c(F)c3)CC2)C(=O)N1 (single isomer, unassigned) [Compound 203] | 282 to 285.9 °C | 79.4 nM | –
6 | Cl.O=C1CCC(c2ccc(F)cc2F)(C2CCN(Cc3ccc(Cl)c(F)c3)CC2)C(=O)N1 (single isomer, unassigned) [Compound 204] | 282 to 283.8 °C | 251 nM | –

Second part, the molecule after the results:

Row | melting point | IC50 (human CXCR3) | pIC50 (human CXCR3) | Compound
7 | 273.9 to 278.3 °C | 316 nM | – | Cl.O=C1CCC(c2ccc(F)cc2F)(C2CCN(Cc3ccc(Br)cc3)CC2)C(=O)N1 (single isomer, unassigned) [Compound 195]
8 | 298.1 to 303.1 °C | – | 5.6 | CN1C(=O)CCC(c2ccccc2)(C2CCN(Cc3ccc(Br)cc3)CC2)C1=O (centres unmarked) [Compound 125]
9 | – | 158 nM | – | CC(c1ccc(Br)cc1)N1CCC(C2(c3ccc(F)cc3F)CCC(=O)NC2=O)CC1 (centres unmarked) [Compound 208]
10 | – | 501 nM | – | CC1CC(=O)NC(=O)C1(c1ccccc1)C1CCN(Cc2ccc(Br)cc2)CC1 (centres unmarked) [Compound 209]
11 | – | 1260 nM | – | CC(=O)N1CC(c2ccccc2)(C2CCN(Cc3ccc(Br)cc3)CC2)CCC1=O (centres unmarked) [Compound 210]
